Common to all, as to test: antibacterial activity, MIC by standard broth dilution method in microtitre
Type in all cases: cell-based
(In general: Dilution methods test growth across graded concentrations, often in twofold steps.)

Assay [1] deals with Streptococcus pneumoniae 1629. As to conditions: S.p. = Streptococcus pneumoniae 1629. As to the method:
(§1) The following Table illustrates the antibacterial activities of representative mutilin 14-esters. Activities are given as minimum inhibitory concentrations in micrograms per milliliter (10^−6 g/ml), and were determined using a standard broth dilution method in microtitre.

Assay [2] concerns Haemophilius influenzae Q1. As to conditions: H.i. = Haemophilius influenzae Q1. As to the method: as §1
Assay [3] has as its system Morazella catarrhalis Ravasio. Particulars: M.c. = Morazella catarrhalis Ravasio. As to the method:
as §1

The subject of the next assay is Escherichla coli DCU. As to conditions: E.c. = Escherichla coli DCU. As to the method: as §1
Assay [4] concerns Staphylococcus aureus Oxford. Particulars: S.a. = Staphylococcus aureus Oxford. As to the method:
as §1

Take `C=C[C@]1(C)C[C@@H](OC(=O)CSCCN(CC)CC)[C@]2(C)[C@H](C)CC[C@]3(CCC(=O)[C@H]32)[C@@H](C)[C@@H]1O` [Tiamulia, Tiamulin, reference compound]: the minimum inhibitory concentrations is 0.25 micrograms per milliliter in assay [1]; 2 micrograms per milliliter in assay [2]; 0.125 micrograms per milliliter in assay [3]; >64 micrograms per milliliter in the assay on Escherichla coli DCU; 0.25 micrograms per milliliter in assay [4].

With `C=C[C@]1(C)C[C@@H](OC(=O)CO)[C@]2(C)[C@H](C)CC[C@]3(CCC(=O)[C@H]32)[C@@H](C)[C@@H]1O` [Pleuomutilin, Pleuromutilin], the minimum inhibitory concentrations is 8 micrograms per milliliter in assay [1]; 2 micrograms per milliliter in assay [2]; 0.5 micrograms per milliliter in assay [3]; >64 micrograms per milliliter in the assay on Escherichla coli DCU; 2 micrograms per milliliter in assay [4].

As for `C=C[C@]1(C)C[C@@H](OC(=O)CSC2CCN(C)CC2)[C@]2(C)[C@H](C)CC[C@]3(CCC(=O)[C@H]32)[C@@H](C)[C@@H]1O` [Example 15, Mutilin-14-(1-methylpiperid-4-ylsulfanyl)-acetate], the minimum inhibitory concentrations entry in assay [1] is given as “≦0.06 micrograms per milliliter”; in assay [2], 0.5 micrograms per milliliter; in assay [3], “≦0.06 micrograms per milliliter”; in the assay with Escherichla coli DCU, 64 micrograms per milliliter; in assay [4] it was “≦0.06 micrograms per milliliter”.

With `C=C[C@]1(C)C[C@@H](OC(=O)CSC23CCN(CC2)CC3)[C@]2(C)[C@H](C)CC[C@]3(CCC(=O)[C@H]32)[C@@H](C)[C@@H]1O` [Example 1, Mutilin 14-(quinuclidin-4-yl-sulfanyl)-acetate], the minimum inhibitory concentrations entry in assay [1] is recorded as “≦0.06 micrograms per milliliter”; in assay [2], 0.25 micrograms per milliliter; in assay [3], “≦0.06 micrograms per milliliter”; in the assay with Escherichla coli DCU, 16 micrograms per milliliter; in assay [4], “≦0.06 micrograms per milliliter”.

Regarding `C=C[C@]1(C)C[C@@H](OC(=O)CSC2CC3CCC(C2)N3C)[C@]2(C)C(C)CC[C@]3(CCC(=O)[C@H]32)[C@@H](C)[C@@H]1O` (stereo partly drawn) [Example 50, Mutilin 14-(exo-8-methyl-8-azabicyclo[3.2.1]oct-3-ylsulfanyl)-acetate], the minimum inhibitory concentrations result is reported as “≦0.06 micrograms per milliliter” in assay [1]; 0.5 micrograms per milliliter in assay [2]; “≦0.06 micrograms per milliliter” in assay [3]; 32 micrograms per milliliter in the assay with Escherichla coli DCU; “≦0.06 micrograms per milliliter” in assay [4].

Values taken from patent USRE43390E1, “Pleuromutilin derivatives as antimicrobials” (GlaxoSmithKline LLC, priority 1997, dated 2012).
